How the values were obtained:
[1] = target: recombinant human glycogen synthase kinase 3 beta (Homo sapiens, UniProt P49841); assay: GSK-3 beta inhibition assay; type: biochemical; details: 0.5 h, percentage of enzyme activity remaining; for remaining activity at 25 µM: 25 μM compound; for remaining activity at 50 µM: 50 μM compound
Method: The GSK-3 beta activity of the compounds of formula (I) according to the present invention was determined by incubation of a mixture of recombinant human GSK-3 enzyme, a phosphate source and GSK-3 substrate in the presence and in the absence of the corresponding test compound, and by measuring the GSK-3 activity of this mixture. The compounds where tested at final concentrations of 25 and 50 μM.
Recombinant human glycogen synthase kinase 3 beta was assayed in MOPS 11 mM, pH 7.4, EDTA 0.2 mM, EGTA 1.25 mM, MgCl2 26.25 mM and sodium orthovanadate 0.25 mM in the presence of 62.5 μM of Phospho-Glycogen Synthase Peptide-2 (GS-2), 0.5 μCi gamma-^33P-ATP and unlabelled ATP at a final concentration of 12.5 μM. The final assay volume was 20 μl. After incubation for 30 minutes at 30° C., 15 μl aliquots were spotted onto P81 phosphocellulose papers. Filters were washed four times for at least 10 minutes each and counted with 1.5 ml of scintillation cocktail in a scintillation counter.
(§1) The compounds of formula (I) of the present invention where submitted to the above indicated assays, in order to determine both their GSK-3 inhibition activity and BACE activity inhibition. The results are indicated in Table I, in percentage of the respective enzyme activity.

[2] = target: T1, rhBACE-1 β-Secretase recombinant human (Homo sapiens, UniProt P56817); assay: BACE assay (FRET); type: biochemical; details: percentage of enzyme activity remaining
T1 construct: purchased R&D Systems 931-AS
From the text: The aim of this assay is to determine if a compound, either synthetic or of marine origin, is a BACE-1 inhibitor, to avoid the formation of Aβ. This assay is based on FRET technology (Fluorescence Resonance Energy Transfer). FRET is used to measure cleavage of a peptide substrate, among other uses. […] When a substrate peptide cleavage occurs, the energy balance is broken and all the donor fluorescence can be observed. The increase in fluorescence is linearly related to the rate of proteolysis (Gordon, G W et al., 1998). In this assay the reaction occurs between an enzyme, purified BACE-1, and a fluorogenic peptidic substrate who present the “Swedish mutation”. The peptide cleavage by BACE-1 produces fluorescence energy and enzymatic activity can be quantified.
The reagents which are used in this assay are the following:
rhBACE-1 β-Secretase recombinant human (R&D Systems. Ref. 931-AS).
Fluorogenic Peptide Substrate IV (R&D Systems. Ref. ES004).
Beta-SECRETASE INHIBITOR H-4848. (BACHEM. Ref. H-4848.0001).
The assay is carried out in a 96 wells microplate. The final concentration of substrate is 3.5 μM per well, and the enzyme concentration is 0.5 μg/ml. The final volume of the assay is 100 μl per well and all reagents are diluted in Reaction Buffer. The compounds are tested at a concentration of 10^−5 and 10^−6 M. The control in the assay is the commercial inhibitor R-Secretase inhibitor H-4848 from BACHEM, which is tested at 300 nM. All the samples and controls are studied by duplicate.
The plate is mixed gently and changes in the fluorescence are measured using a fluorimeter plate reader, with 320 nm excitation filter and 405 nm emission filter. The temperature should be preferably maintained between 25 and 30° C. Measurements are carried out every ten minutes during an hour. The first measure is subtracted from the last to calculate the fluorescence increase, evaluating the enzymatic activity. The 100% activity is calculated as the mean of the results of wells without sample or inhibitor.
In the cases where abnormal effects in fluorescence were detected, BACE inhibition activity was assayed using BACE-1 (beta-Secretase) FRET ASSAY KIT (Invitrogen, Ref. P2985). Fluorescence was measured with a fluorimeter plate reader, with 544 nm excitation filter and 580 nm emission filter.
as §1

Sequence of recombinant human glycogen synthase kinase 3 beta (P49841 whole entry): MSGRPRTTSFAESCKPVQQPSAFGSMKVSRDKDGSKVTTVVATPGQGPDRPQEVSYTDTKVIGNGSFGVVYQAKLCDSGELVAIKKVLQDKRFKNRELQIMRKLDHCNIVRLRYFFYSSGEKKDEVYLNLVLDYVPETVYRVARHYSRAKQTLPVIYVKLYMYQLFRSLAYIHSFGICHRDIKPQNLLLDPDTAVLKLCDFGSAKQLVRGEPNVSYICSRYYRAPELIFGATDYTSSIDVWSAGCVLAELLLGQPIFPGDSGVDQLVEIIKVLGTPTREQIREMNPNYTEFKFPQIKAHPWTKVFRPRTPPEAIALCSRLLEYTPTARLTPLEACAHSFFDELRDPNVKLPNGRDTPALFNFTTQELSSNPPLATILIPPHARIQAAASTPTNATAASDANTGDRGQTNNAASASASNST
T1 sequence (P56817 46-457 limits assumed): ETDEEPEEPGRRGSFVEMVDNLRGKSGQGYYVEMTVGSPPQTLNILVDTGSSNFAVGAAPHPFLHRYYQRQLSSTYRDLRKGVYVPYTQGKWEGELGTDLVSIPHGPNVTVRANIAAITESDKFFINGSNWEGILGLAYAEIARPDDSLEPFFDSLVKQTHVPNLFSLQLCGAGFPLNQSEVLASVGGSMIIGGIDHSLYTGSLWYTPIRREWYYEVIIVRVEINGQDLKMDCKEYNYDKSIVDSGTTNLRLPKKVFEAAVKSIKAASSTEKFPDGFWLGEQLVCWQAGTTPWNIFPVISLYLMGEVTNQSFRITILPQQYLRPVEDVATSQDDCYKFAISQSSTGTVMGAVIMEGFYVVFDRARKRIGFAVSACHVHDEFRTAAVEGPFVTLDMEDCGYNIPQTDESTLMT

Row | remaining activity at 25 µM [1] [%] | remaining activity at 50 µM [1] [%] | % of BACE activity ([2]; 1 μM compound) [%] | % of BACE activity ([2]; 10 μM compound) [%] | SMILES
1 | 88.1 | 68 | 100 | 18.5 ± 12.1 | COC(=O)c1ccc(OC)c(OC/C=C(\C)CCC=C(C)C)c1 [Compound 2, 3-(3,7-Dimethyl-octa-2,6-dienyloxy)-4-methoxy-benzoic acid methyl ester]
2 | 94.4 | 80.7 | 13.3 | 0 | COC(=O)c1cccc(OC/C=C(\C)CCC=C(C)C)c1 [Compound 5]
3 | 70.3 | 80 | 87.5 ± 17 | 36.5 ± 38 | CC(C)=CCC/C(C)=C/COc1cccc(C(=O)O)c1 [Compound 6]
4 | 85.6 | 71 | 100 | 81 ± 8 | COC(=O)c1ccc(N)c(OC/C=C(\C)CCC=C(C)C)c1 [Compound 8, 4-Amino-3-(3,7-dimethyl-octa-2,6-dienyloxy)-benzoic acid methyl ester]
5 | 91.7 | 59.5 | 100 | 80 ± 13 | COC(=O)c1ccc(N)c(OC/C=C(\C)CC/C=C(\C)CCC=C(C)C)c1 [Compound 9, 4-Amino-3-(3,7,11-trimethyl-dodeca-2,6,10-trienyloxy)-benzoic acid methyl ester]
6 | 56 | 19.5 | 86.5 ± 5 | 82 ± 10 | COC(=O)c1ccc(OC)c(OC/C=C(\C)CCC=C(C)C)c1C/C=C(\C)CCC=C(C)C [Compound 10]
7 | 84.8 | 58.2 | 48 ± 2 | 8 ± 3 | COc1ccc(C(=O)OC/C=C(\C)CCC=C(C)C)cc1OC/C=C(\C)CCC=C(C)C [Compound 11, 3-(3,7-Dimethyl-octa-2,6-dienyloxy)-4-methoxy-benzoic acid 3,7-dimethyl-octa-2,6-dienyl ester]
8 | 47.5 | 27.9 | 99 ± 7 | 42 ± 18 | COc1ccc(C(=O)NC/C=C(\C)CCC=C(C)C)cc1OC/C=C(\C)CCC=C(C)C [Compound 12, N-(3,7-Dimethyl-octa-2,6-dienyl)-3-(3,7-dimethyl-octa-2,6-dienyloxy)-4-methoxy-benzamide]
9 | 54.6 | 7.36 | 49 ± 5 | 0 | COc1ccc(C(=O)OCC=C(C)C)cc1OC/C=C(\C)CCC=C(C)C [Compound 13]
10 | 90.4 | 65.5 | 100 | 79 ± 13 | CC(C)=CCC/C(C)=C/CC/C(C)=C/COc1cc(C(=O)O)ccc1N [Compound 17, 4-Amino-3-(3,7,11-trimethyl-dodeca-2,6,10-trienyloxy)-benzoic acid]
11 |  | 85.1 | 3.5 ± 5 | 0 | COC(=O)c1ccc(NC(C)=O)c(OC/C=C(\C)CCC=C(C)C)c1 [Compound 19, 4-Acetylamino-3-(3,7-dimethyl-octa-2,6-dienyloxy)-benzoic acid methyl ester]
12 | 74.4 | 40 | 2 ± 4.5 | 0 | COC(=O)c1ccc(NC(C)=O)c(OC/C=C(\C)CC/C=C(\C)CCC=C(C)C)c1 [Compound 20]
13 | 90 | 57.5 | 68.5 ± 0.7 | 29 ± 10 | CC(=O)Nc1ccc(C(=O)O)cc1OC/C=C(\C)CC/C=C(\C)CCC=C(C)C [Compound 21, 4-Acetylamino-3-(3,7,11-trimethyl-dodeca-2,6,10-trienyloxy)-benzoic acid]
14 | 53 | 18.6 | 61 ± 133 | 0 | COCOC(=O)c1ccc(OC)c(OC/C=C(\C)CCC=C(C)C)c1 [Compound 23, 3-(3,7-Dimethyl-octa-2,6-dienyloxy)-4-methoxy-benzoic acid methoxymethyl ester]
15 | 12.4 | 4.55 | 30 ± 7 | 26 ± 13 | CC(C)=CCC/C(C)=C/CC/C(C)=C/COc1ccc(C(=O)O)cc1OC/C=C(\C)CC/C=C(\C)CCC=C(C)C [Compound 24, 3,4-Bis-(3,7,11-trimethyl-dodeca-2,6,10-trienyloxy)-benzoic acid]
16 | 48.3 | 7.61 | 100 | 50 ± 16 | CCOC(=O)c1ccc(O)c(OC/C=C(\C)CCC=C(C)C)c1 [Compound 27]
17 | 90.8 | 95.7 | 100 | 89 ± 6 | CC(C)=CCC/C(C)=C/COc1cc(C(=O)O)ccc1O [Compound 28]

Source: patent publication US20100267827A1, “PHENYL-PRENYL-ETHER DERIVATIVES FOR THE TREATMENT OF COGNITIVE, NEURODEGENERATIVE OR NEURONAL DISEASES OR DISORDERS” (NOSCIRA, S.A., priority 2006, published 2010)
